For series [1], the target named is AHAS protein WT (Arabidopsis thaliana, UniProt P17597). Put plainly: biochemical. As to the method: (§1) Bacteria are grown at 37° C. in LB-medium containing 100 mg/l carbenicillin and 25 mg/l canamycin, induced with 1 mM isopropyl-β-D-thiogalactopyranoside at an OD600 of 0.6, cultivated for 16 hours at 18° C. and harvested by, e.g., centrifugation. Bacterial pellets are resuspended in 100 mM sodium phosphate buffer pH 7.0 containing 0.1 mM thiamine-pyrophosphate, 1 mM MgCl2, and 1 μM FAD at a concentration of 1 gram wet weight per 25 ml of buffer and disrupted by, e.g., sonification. The crude protein extract obtained after centrifugation is used for ALS activity measurements.
(§2) ALS protein can be extracted from leaves or tissue cultures, such as B. napus or B. juncea leaves, or B. napus or B. juncea tissue cultures as described by Ray (Plant Physiol, 1984, 75:827-831). An ALS assays can be carried out in 96-well microtiter plates using a modification of the procedure described by Ray (1984): The reaction mixture contains 20 mM potassium phosphate buffer pH 7.0, 20 mM sodium pyruvate, 0.45 mM thiamine-pyrophosphate, 0.45 mM MgCl2, 9 μM FAD. ALS enzyme and various concentrations of ALS inhibitors can be mixed in a final volume of 90 μl. Assays can be initiated by adding enzyme and the assays can be terminated after 75 min incubation at 30° C. by the addition of 40 μl 0.5 M H2SO4.

The target in series [2] is AHAS protein comprising the P197S mutation (Arabidopsis thaliana, UniProt P17597, P197S). Put plainly: biochemical. Particulars: for Resistance Factor P197S: AHAS P197S relative to WT. The method, then:
as §1, §2

Series [3] has as its target AHAS protein comprising the W574L mutation (Arabidopsis thaliana, UniProt P17597, W574L). Put plainly: biochemical. Particulars: for Resistance Factor W574L: AHAS W574L relative to WT. As to the method:
as §1, §2

Series [4] addresses AHAS protein comprising both the P197S and W574L mutation in one ALS protein (Arabidopsis thaliana, UniProt P17597, P197S/W574L). The series is classed as biochemical. As to conditions: both mutations in one ALS protein; for Resistance Factor P197S-W574L (in one protein): relative to WT. The method, then: as §1, §2
Series [5] deals with mixture of two ALS proteins, one comprising the P197S and the other the W574L mutation (Arabidopsis thaliana, UniProt P17597, P197S/W574L). In words: biochemical. As to conditions: for Resistance Factor P197S & W574L (mixture): calculated mixture of two ALS proteins, relative to WT.
In series [6] the test system is Brassica napus hypocotyl derived callus. Put plainly: Selection of hypocotyl derived callus on medium containing Foramsulfuron. The class given is cell-based. As to the method:
Five day old seedlings were used for the preparation of hypocotyl segments 7-10 mm in length. Hypocotyl segments were transferred to 14 cm Petri plates containing 75 ml of M-338 [H76] callus induction medium (25 explants/plate). M-338 [H76] medium is MS salts and vitamins (Murashige and Skoog, 1962), 20 g/l sucrose, 0.5 g/l MES, 0.5 g/l adenine sulphate, 5 mg/l silver nitrate, 0.5 mg/l 2,4-D, 0.2 mg/l kinetin and solidified with 5.5 g/l agarose (pH 5.7). Dishes were sealed and cultured at 24° C. with standard light conditions (16 h/day). After 3 weeks, calli developing at the ends of the explants were transferred to fresh M-338 [H76] plates (25 calli/plate). Calli were subcultured to fresh medium every 3 weeks (larger calli cut into two pieces).
Hypocotyl derived callus (9 weeks old) was used for the selection of herbicide resistant mutants. Small pieces of callus were plated on M-338 [H76] medium containing 25 nM of the ALS inhibitor Foramsulfuron (CAS RN 173159-57-4). […] Dishes were cultured at 24° C. with standard light conditions (16 h/day). After 3 weeks, the calli were divided into 2 pieces each and replated on M-338 [H76] medium containing 50 nM Foramsulfuron. […]

Series [7] has as its system wild-type (WT) oilseed rape. In words: Field test of visible phytotoxicity upon herbicide spraying, wild-type. The series is classed as in vivo, Brassica napus. As to conditions: g ai/ha: imazamox 40, bispyribac-sodium 50, propoxycarbazone-sodium 70, mesosulfuron-methyl 60, pyroxsulam 12.5 + cloquintocet-mexyl 37.5, each + rapeseed oil methylated 366.5, 0%=no phytotoxic effects, 100%=all plants killed. From the text: (§3) Seeds of spring oilseed rape homozygous for HETO132 and HETO134, and seeds of spring oilseed rape homozygous for HETO133 and HETO 134 were sown in a field according to typical practical agricultural methods. Several ALS inhibitor herbicides were applied to the oilseed rape plants by using specific spray equipment for small plot applications. […] The use of all herbicides in the test lead to a clearly better tolerance of the spring oilseed rape lines homozygous for HETO132 and HETO134 as compared to a standard variety not comprising ALS alleles according to the invention.

Series [8] deals with oilseed rape homozygous for HETO133 and HETO134. In words: Field test of visible phytotoxicity upon herbicide spraying, HETO133-HETO134. The class given is in vivo, Brassica napus. Particulars: g ai/ha: imazamox 40, bispyribac-sodium 50, propoxycarbazone-sodium 70, mesosulfuron-methyl 60, pyroxsulam 12.5 + cloquintocet-mexyl 37.5, each + rapeseed oil methylated 366.5, 0%=no phytotoxic effects, 100%=all plants killed.
Excerpt: as §3

The test system of series [9] is oilseed rape homozygous for HETO132 and HETO134. Put plainly: Field test of visible phytotoxicity upon herbicide spraying, HETO132-HETO134. The series is classed as in vivo, Brassica napus. Particulars: g ai/ha: imazamox 40, bispyribac-sodium 50, propoxycarbazone-sodium 70, mesosulfuron-methyl 60, pyroxsulam 12.5 + cloquintocet-mexyl 37.5, each + rapeseed oil methylated 366.5, 0%=no phytotoxic effects, 100%=all plants killed.
Excerpt: as §3

A short description of series [10]: Kinetic parameters of enzymatic activity of AHAS proteins. The class given is biochemical. Particulars: enzymatic activity of the AHAS protein. As to the method:
The ALS inhibitor sensitivity and kinetic parameters of AHAS proteins comprising the P197S mutation, the W574L mutation, and both the P197S and W574L mutation in one ALS protein, were determined essentially as described in WO 2013/127766. ALS inhibitor sensitivity of a mixture of two ALS proteins, one of which comprising the P197S and the other comprising the W574L mutations were calculated as described in WO 2013/127766.

Numbering of substitutions follows the chain as printed. In names and notes the source's numbering stands. A value given as a limit tells only on which side of the number the result lay.

AHAS protein comprising the W574L mutation, sequence (P17597 56-670 W574L): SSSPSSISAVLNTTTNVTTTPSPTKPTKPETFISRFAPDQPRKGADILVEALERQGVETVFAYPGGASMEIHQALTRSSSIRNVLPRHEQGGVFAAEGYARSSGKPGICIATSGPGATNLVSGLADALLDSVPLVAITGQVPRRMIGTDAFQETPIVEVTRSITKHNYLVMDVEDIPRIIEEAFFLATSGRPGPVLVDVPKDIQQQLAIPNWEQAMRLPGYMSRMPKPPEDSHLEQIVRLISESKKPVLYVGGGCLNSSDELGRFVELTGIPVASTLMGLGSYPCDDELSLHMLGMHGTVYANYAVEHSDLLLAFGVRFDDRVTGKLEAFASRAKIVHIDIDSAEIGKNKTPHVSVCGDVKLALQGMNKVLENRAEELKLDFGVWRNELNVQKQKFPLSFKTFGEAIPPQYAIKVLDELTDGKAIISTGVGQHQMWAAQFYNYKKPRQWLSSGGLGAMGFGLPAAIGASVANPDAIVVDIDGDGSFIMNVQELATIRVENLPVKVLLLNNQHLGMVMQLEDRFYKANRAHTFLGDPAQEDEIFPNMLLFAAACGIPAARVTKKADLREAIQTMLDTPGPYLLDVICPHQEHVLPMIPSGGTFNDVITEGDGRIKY
AHAS protein comprising the P197S mutation, sequence (P17597 56-670 P197S): as the sequence (P17597 56-670 W574L) above, with P142S, L519W counted along it
AHAS protein comprising both the P197S and W574L mutation in one ALS protein, sequence (P17597 56-670 P197S/W574L): as the sequence (P17597 56-670 W574L) above, with P142S counted along it
mixture of two ALS proteins, one comprising the P197S and the other the W574L mutation, sequence (P17597 56-670 P197S/W574L): as the sequence (P17597 56-670 W574L) above, with P142S counted along it
AHAS protein WT, sequence (P17597 56-670): as the sequence (P17597 56-670 W574L) above, with L519W counted along it

In general, IC50 refers to the point on the concentration scale where inhibition reaches its midpoint. For the molecule `COc1cc(OC)nc(NC(=O)NS(=O)(=O)c2cc(NC=O)ccc2C(=O)N(C)C)n1` [Foramsulfuron, foramsulfuron], the midpoint of inhibition in [1], the IC50, lay at 7.94 nM. Moreover, in series [2], the IC50 was 100 nM and the “Resistance Factor P197S” value came to 12. In series [3], 50100 nM corresponded to half-maximal inhibition (IC50) and the “Resistance Factor W574L” value was found to be 5888. In series [4], the “pI50 P197S-W574L (in one protein)” value is on record as below 4 and the “Resistance Factor P197S-W574L (in one protein)” value (“Resistance Factor P197S-W574L” for short) was above 11748. Besides, in [5], the IC50 was 2510 nM and the “Resistance Factor P197S & W574L (mixture)” value is recorded as 398. The “effect on callus growth” value in [6] (25 nM in M-338 [H76] medium, 9 weeks old hypocotyl derived callus) is recorded as “partially inhibitory to callus growth but not lethal”. For the same molecule, the “effect on WT tissues” value in [6] (250 nM in M-338 [H76] medium) was “clearly inhibitory to WT tissues”.
In the case of `COc1cc(OC)nc(Oc2cccc(Oc3nc(OC)cc(OC)n3)c2C(=O)O)n1` [Bispyribac-sodium, bispyribac-sodium], in series [7], the “Percentage phytotoxicity 9 DAA wild-type” value is on record as 76.7%, the “Percentage phytotoxicity 16 DAA wild-type” value was 98.3% and the “Percentage phytotoxicity 24 DAA wild-type” value was 100%. Also, in series [8], the “Percentage phytotoxicity 9 DAA HETO133-HETO134” value is 56.7%, the “Percentage phytotoxicity 16 DAA HETO133-HETO134” value was 88.3% and the “Percentage phytotoxicity 24 DAA HETO133-HETO134” value is 92.7%. Further, in series [9], the “Percentage phytotoxicity 9 DAA HETO132-HETO134” value came to 46.7%, the “Percentage phytotoxicity 16 DAA HETO132-HETO134” value came to 71.7% and the “Percentage phytotoxicity 24 DAA HETO132-HETO134” value worked out at 43.3%. Further, the IC50 in series [1] was 15.8 nM. Further, in series [2], 79.4 nM corresponded to half-maximal inhibition (IC50) and the “Resistance Factor P197S” value is on record as 4. For the same molecule, in [3], half-maximal inhibition (IC50) required 7940 nM and the “Resistance Factor W574L” value was determined as 447. Further, in [4], the “pI50 P197S-W574L (in one protein)” value is given as below 4 and the “Resistance Factor P197S-W574L” value was above 5623. Also, in [5], the IC50 was 794 nM and the “Resistance Factor P197S & W574L (mixture)” value is listed as 40.
In the case of `COCc1cnc(C2=NC(C)(C(C)C)C(=O)N2)c(C(=O)O)c1` (centres unmarked) [Imazamox, imazamox], in [7], the “Percentage phytotoxicity 9 DAA wild-type” value is 73.3%, the “Percentage phytotoxicity 16 DAA wild-type” value was found to be 98% and the “Percentage phytotoxicity 24 DAA wild-type” value stood at 99%. In addition, in series [8], the “Percentage phytotoxicity 9 DAA HETO133-HETO134” value came to 6.7%, the “Percentage phytotoxicity 16 DAA HETO133-HETO134” value was 10% and the “Percentage phytotoxicity 24 DAA HETO133-HETO134” value is given as 0%. Moreover, in series [9], the “Percentage phytotoxicity 9 DAA HETO132-HETO134” value amounted to 6.7%, the “Percentage phytotoxicity 16 DAA HETO132-HETO134” value is on record as 8.7% and the “Percentage phytotoxicity 24 DAA HETO132-HETO134” value was 0%. This molecule gave a half-inhibitory concentration (IC50) in [1] of 3980 nM. Also, in [2], half-maximal inhibition (IC50) required 5010 nM and the “Resistance Factor P197S” value is recorded as 1. For the same molecule, in series [3], the IC50 is above 100000 nM and the “Resistance Factor W574L” value was above 22. In [4], the “pI50 P197S-W574L (in one protein)” value is below 4 and the “Resistance Factor P197S-W574L” value was above 22. In series [5], the IC50 is 79400 nM and the “Resistance Factor P197S & W574L (mixture)” value was 20.

B1: P197S: AHAS protein comprising the P197S mutation (protein, listed as Arabidopsis thaliana)
chain: MAAATTTTTTSSSISFSTKPSPSSSKSPLPISRFSLPFSLNPNKSSSSSRRRGIKSSSPSSISAVLNTTTNVTTTPSPTKPTKPETFISRFAPDQPRKGADILVEALERQGVETVFAYPGGASMEIHQALTRSSSIRNVLPRHEQGGVFAAEGYARSSGKPGICIATSGPGATNLVSGLADALLDSVPLVAITGQVSRRMIGTDAFQETPIVEVTRSITKHNYLVMDVEDIPRIIEEAFFLATSGRPGPVLVDVPKDIQQQLAIPNWEQAMRLPGYMSRMPKPPEDSHLEQIVRLISESKKPVLYVGGGCLNSSDELGRFVELTGIPVASTLMGLGSYPCDDELSLHMLGMHGTVYANYAVEHSDLLLAFGVRFDDRVTGKLEAFASRAKIVHIDIDSAEIGKNKTPHVSVCGDVKLALQGMNKVLENRAEELKLDFGVWRNELNVQKQKFPLSFKTFGEAIPPQYAIKVLDELTDGKAIISTGVGQHQMWAAQFYNYKKPRQWLSSGGLGAMGFGLPAAIGASVANPDAIVVDIDGDGSFIMNVQELATIRVENLPVKVLLLNNQHLGMVMQWQDRFYKANRAHTFLGDPAQEDEIFPNMLLFAAACGIPAARVTKKADLREAIQTMLDTPGPYLLDVICPHQEHVLPMIPSGGTFNDVITEGDGRIKY
The Km is the concentration of substrate that gives half-maximal velocity. In the case of B1, in series [10], the Km was 5.5 mM and the Vmax stood at 50.0 deltaOD550/min mg protein.

B2: W574L: AHAS protein comprising the W574L mutation (protein, listed as Arabidopsis thaliana)
chain: B1 chain with S197P, W574L
For B2, in [10], the Km was found to be 7 mM and the Vmax is 54.4 deltaOD550/min mg protein.

B3: P197S-W574L (in one protein): AHAS protein comprising both the P197S and W574L mutation in one ALS protein (protein, listed as Arabidopsis thaliana)
chain: B1 chain with W574L
With B3, in [10], the Km is 31.5 mM and the Vmax is 87.7 deltaOD550/min mg protein.
